Measurements: patent US5912183A, “Peptide inhibitors of mitogenesis and motogenesis” (Pharmacia & Upjohn S.p.A., priority 1993, dated 1999)
Residues, ends and D or L forms follow the SMILES beside them.

Tested on: N- and C-SH2 domains of p85
Experiment: BIAcore inhibition of binding of GST-SH2 domains to immobilized PDGF receptor phosphopeptide Y751
Design: species or system bovine
Settings: range of phosphopeptide concentrations; 25° C.; FIG. 7
Protocol: FIG. 7. Evaluation of the relative affinities of phosphotyrosine 1313, 1349 and 1356 for the N- and C- SH2 domains of p85. Affinities were determined by biospecific interaction analysis with the BIAcore instrument (Jonsson, U., Fagerstam, L., Roos, H., Ronnberg, J., Sjolander, Stenber, E., Stahlberg, R. Urbaniczky, C., Ostlin, H., and Malmquist. 1991. Surface plasmon reasonance and microfluidics for real time biospecific interaction analysis. Biotechniques 11: 520-527; Jonsson, U. and M. Malmquist. 1992. Real time biospecific analysis. The integration of surface plasmon reasonance detection, general biospecific interface chemistry and microfluidics into one analytical system p. 291-336. In F. Turner (ed), Advances in Biosensors, vol. 2 JAI Press, London; Karlsson, R., Michaelsson, A., and L. Mattsson. 1991. Kinetic analysis of monoclonal antibody-antigen interactions with a new biosensor based analytical system. J. Immunol. Meth. 145: 229-246).
Relative affinities were determined by measuring the ability of the phosphopeptides to inhibit the interaction of the SH2 domains with an immobilized phosphopeptide (DMSKDESVDY*VPMLDMK) (SEQ. ID NO: 26) which includes Y751 in the human PDGF receptor. Panel A and B show the results of these measurements, expressed as % inhibition of binding to phosphopeptide Y751.
GST-SH2 domain fusion proteins. The N- and C-SH2 domains of the bovine PI 3-kinase p85 subunit (amino acids 314-431 and 612-722) were obtained by polymerase chain reaction and cloned into the pGEX-2 bacterial expression vector (Smith, D. B., and Johnson K. S., Gene 67: 31-40 (1988).
Glutathione-S-transferase (GST)-SH2 fusion proteins were purified from bacterial lysates by glutathione affinity chromatography (Panayotou, G., et al. EMBO J., 11: 4261-4272 (1992)). Amino acid analysis on an Applied Biosystems 420A analyzer was used to determine the concentration of the recombinant proteins.
Analysis of the interaction of Y1349 and Y1356 with the p85 N- and C- SH2 domains using the BIAcore. […]

For `CSCC[C@H](NC(=O)[C@@H](NC(=O)[C@H](CCC(=O)O)NC(=O)[C@@H](N)Cc1ccc(OP(=O)(O)O)cc1)C(C)C)C(=O)N[C@@H](CC(C)C)C(=O)N[C@@H](CCCCN)C(=O)N[C@@H](CS)C(=O)N[C@@H](Cc1c[nH]c2ccccc12)C(=O)O` [H-Tyr*-Glu-Val-Met-Leu-Lys-Cys-Trp-OH] (HELM PEPTIDE1{[N[C@@H](Cc1ccc(OP(=O)(O)O)cc1)C(=O)[*:2]].E.V.M.L.K.C.W}$$$$V2.0), the “Apparent relative affinity: inhibition of binding of p85 N- and C-SH2 domains to phosphopeptide Y751” value was “highest apparent affinity”.
